# According to ChEMBL document CHEMBL1201862, “PubChem BioAssay data set” (2004):
# Active and inactive are the calls of the source. Cut-off read from the data, not from the text of the source, for most assays here: actives have a measured EC50 and inactives only a lower limit.
# What was measured:
# [1] = target: T1, RNA-binding protein pos-1 (Caenorhabditis elegans, UniProt G5EF15); test: inhibitors of POS-1/mex-3 RNA binding, dose response, biochemical, fluorescence polarization (AID 1964);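 note: purified POS-1 fused to maltose binding protein made in E. coli; potency of compounds blocking POS-1 binding to fluorescent RNA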
# T1 sequence (G5EF15 whole entry): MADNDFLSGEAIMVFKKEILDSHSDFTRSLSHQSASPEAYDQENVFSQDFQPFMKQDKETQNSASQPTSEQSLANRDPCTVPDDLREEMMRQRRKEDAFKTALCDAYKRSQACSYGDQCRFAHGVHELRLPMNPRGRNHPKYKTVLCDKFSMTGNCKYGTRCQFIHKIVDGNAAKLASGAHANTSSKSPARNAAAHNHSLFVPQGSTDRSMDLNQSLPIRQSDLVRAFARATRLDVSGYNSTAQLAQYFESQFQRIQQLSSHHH
# [2] = target: T2, Zinc finger protein mex-5 (Caenorhabditis elegans, UniProt Q9XUB2); test: MEX-5/TCR-2 RNA interaction inhibitors, dose response, biochemical, C. elegans, fluorescence polarization (AID 1960)
# T2 sequence (Q9XUB2 whole entry): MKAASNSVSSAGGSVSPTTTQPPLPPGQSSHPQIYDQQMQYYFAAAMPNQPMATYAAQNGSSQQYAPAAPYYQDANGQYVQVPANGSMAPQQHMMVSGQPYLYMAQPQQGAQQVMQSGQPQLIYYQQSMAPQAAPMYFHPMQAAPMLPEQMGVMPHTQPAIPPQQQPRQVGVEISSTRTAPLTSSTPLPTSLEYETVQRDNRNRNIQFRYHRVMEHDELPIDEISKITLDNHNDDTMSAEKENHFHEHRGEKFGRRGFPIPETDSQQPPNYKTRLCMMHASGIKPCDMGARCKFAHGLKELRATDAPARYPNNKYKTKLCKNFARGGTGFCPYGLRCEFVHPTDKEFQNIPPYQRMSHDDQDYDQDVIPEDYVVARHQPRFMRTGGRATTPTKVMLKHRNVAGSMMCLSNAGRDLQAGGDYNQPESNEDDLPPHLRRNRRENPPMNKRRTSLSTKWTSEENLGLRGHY
# [3] = target: Ion channel NompC (Danio rerio, UniProt Q7T1G6); test: Dose response cell-based high-throughput screening assay for agonists of the transient receptor potential channel N1 (TRPN1). [Related pubchem assays (depositor defined):AID1424, AID1448]; type: functional
# Chain of Ion channel NompC (Q7T1G6 whole entry): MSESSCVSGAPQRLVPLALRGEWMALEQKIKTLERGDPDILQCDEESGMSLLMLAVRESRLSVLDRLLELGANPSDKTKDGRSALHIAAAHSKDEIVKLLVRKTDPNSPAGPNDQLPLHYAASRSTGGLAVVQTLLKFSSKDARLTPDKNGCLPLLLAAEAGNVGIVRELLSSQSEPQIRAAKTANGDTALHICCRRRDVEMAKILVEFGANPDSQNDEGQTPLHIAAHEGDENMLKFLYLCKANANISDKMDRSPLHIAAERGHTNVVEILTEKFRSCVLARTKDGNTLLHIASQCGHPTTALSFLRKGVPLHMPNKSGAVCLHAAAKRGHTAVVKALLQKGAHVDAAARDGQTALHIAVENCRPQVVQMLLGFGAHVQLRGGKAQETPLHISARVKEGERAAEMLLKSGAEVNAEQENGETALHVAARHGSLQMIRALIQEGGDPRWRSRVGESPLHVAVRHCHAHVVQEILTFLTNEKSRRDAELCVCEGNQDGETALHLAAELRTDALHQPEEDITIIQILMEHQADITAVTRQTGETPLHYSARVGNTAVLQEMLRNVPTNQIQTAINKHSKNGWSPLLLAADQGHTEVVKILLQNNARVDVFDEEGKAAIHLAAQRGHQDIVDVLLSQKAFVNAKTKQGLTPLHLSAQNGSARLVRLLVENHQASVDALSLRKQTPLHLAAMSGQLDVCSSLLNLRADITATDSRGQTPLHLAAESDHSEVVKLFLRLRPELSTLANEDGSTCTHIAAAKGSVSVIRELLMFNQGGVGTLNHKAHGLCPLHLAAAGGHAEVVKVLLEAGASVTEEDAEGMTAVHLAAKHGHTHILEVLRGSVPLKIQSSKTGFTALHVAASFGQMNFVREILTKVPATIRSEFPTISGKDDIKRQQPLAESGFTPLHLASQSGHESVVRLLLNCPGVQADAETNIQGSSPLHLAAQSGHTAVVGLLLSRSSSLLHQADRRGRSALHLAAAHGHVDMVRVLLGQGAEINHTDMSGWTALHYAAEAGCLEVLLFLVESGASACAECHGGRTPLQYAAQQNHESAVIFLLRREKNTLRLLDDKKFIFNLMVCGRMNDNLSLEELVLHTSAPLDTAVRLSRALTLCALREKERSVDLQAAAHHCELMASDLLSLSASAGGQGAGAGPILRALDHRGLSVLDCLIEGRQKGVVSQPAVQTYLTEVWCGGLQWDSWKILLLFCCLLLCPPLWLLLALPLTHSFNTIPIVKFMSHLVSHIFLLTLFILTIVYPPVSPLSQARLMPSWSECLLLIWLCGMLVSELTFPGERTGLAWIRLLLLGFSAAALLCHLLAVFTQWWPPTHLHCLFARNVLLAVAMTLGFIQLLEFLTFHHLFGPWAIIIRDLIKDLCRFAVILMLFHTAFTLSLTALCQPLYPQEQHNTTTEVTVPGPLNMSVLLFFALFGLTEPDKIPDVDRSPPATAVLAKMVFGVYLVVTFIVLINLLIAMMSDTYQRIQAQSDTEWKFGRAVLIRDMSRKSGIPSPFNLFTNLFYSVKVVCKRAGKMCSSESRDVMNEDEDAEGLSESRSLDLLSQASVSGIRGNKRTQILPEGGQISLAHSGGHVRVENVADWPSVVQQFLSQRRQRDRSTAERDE
# [4] = target: Mucolipin-3 (Homo sapiens, UniProt Q8TDD5); test: Fluorescence counterscreen assay for […] agonists: dose response cell-based high-throughput screening assay to identify agonists of the transient receptor potential channel ML3 (TRPML3). [Related pubchem assays: 1424, 1448 ]; type: functional
# Chain of Mucolipin-3 (Q8TDD5 whole entry): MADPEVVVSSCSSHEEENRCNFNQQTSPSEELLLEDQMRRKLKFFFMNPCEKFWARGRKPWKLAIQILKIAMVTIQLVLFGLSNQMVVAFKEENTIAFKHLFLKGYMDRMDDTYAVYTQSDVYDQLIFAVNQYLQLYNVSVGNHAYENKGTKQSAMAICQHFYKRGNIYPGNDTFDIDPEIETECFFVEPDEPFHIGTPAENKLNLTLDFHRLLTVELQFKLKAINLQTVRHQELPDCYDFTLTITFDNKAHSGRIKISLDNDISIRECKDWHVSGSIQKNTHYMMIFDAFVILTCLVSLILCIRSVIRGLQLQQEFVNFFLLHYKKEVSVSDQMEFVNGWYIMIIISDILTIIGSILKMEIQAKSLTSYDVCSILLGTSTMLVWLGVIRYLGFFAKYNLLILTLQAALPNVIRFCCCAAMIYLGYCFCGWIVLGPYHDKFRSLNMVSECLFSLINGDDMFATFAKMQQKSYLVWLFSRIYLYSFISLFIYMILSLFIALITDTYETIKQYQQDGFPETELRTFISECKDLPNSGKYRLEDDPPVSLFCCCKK
# [5] = tested on: BJ; test: cytotoxicity toward BJ-TERT fibroblasts, dose response, cell-based, RAS-independent, luminescence (AID 1933); type: functional; conditions: Homo sapiens
# [6] = tested on: BJ; test: cells; type: functional, cell-based; conditions: Homo sapiens
# [7] = target: T3, Calpain-2 catalytic subunit (Sus scrofa, UniProt P43367); test: pig calpain II inhibitor potency, dose response, biochemical, fluorogenic peptide substrate (AID 1420); type: functional
# T3 sequence (P43367 whole entry): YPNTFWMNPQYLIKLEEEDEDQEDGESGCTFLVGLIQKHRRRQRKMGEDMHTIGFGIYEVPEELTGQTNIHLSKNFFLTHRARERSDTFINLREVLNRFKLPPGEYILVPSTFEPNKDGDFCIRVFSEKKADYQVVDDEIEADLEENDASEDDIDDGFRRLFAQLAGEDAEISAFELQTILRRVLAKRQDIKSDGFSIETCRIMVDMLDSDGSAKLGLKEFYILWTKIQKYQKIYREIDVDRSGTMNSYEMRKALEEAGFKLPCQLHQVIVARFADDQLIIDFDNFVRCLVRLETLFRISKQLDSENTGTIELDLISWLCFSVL
# [8] = tested on: BJ; test: cytotoxicity toward BJ-TERT-LT-ST fibroblasts, dose response, cell-based, RAS-independent, luminescence (AID 1935); type: functional; conditions: Homo sapiens;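 note: BJ fibroblasts immortalized with TERT plus LT and ST oncogenes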
# [9] = cytotoxicity toward DRD oncogenic fibroblasts, dose response, cell-based, non-viral oncogenic, luminescence (AID 1934); type: functional; conditions: Homo sapiens
# [10] = Intein inhibitors as potential Tuberculosis drugs, a cytotoxicity screen. [Related pubchem assays (depositor defined):AID2221, AID2223, AID434968, AID435010, AID449749, AID449750, AID489010]; type: functional
# [11] = target: T4, Replicative DNA helicase DnaB (Mycobacterium tuberculosis, UniProt P9WMR3); test: DnaB intein splicing inhibitors, dose response, biochemical, cell-free fluorescence (AID 449749); type: functional
# T4 sequence (P9WMR3 whole entry): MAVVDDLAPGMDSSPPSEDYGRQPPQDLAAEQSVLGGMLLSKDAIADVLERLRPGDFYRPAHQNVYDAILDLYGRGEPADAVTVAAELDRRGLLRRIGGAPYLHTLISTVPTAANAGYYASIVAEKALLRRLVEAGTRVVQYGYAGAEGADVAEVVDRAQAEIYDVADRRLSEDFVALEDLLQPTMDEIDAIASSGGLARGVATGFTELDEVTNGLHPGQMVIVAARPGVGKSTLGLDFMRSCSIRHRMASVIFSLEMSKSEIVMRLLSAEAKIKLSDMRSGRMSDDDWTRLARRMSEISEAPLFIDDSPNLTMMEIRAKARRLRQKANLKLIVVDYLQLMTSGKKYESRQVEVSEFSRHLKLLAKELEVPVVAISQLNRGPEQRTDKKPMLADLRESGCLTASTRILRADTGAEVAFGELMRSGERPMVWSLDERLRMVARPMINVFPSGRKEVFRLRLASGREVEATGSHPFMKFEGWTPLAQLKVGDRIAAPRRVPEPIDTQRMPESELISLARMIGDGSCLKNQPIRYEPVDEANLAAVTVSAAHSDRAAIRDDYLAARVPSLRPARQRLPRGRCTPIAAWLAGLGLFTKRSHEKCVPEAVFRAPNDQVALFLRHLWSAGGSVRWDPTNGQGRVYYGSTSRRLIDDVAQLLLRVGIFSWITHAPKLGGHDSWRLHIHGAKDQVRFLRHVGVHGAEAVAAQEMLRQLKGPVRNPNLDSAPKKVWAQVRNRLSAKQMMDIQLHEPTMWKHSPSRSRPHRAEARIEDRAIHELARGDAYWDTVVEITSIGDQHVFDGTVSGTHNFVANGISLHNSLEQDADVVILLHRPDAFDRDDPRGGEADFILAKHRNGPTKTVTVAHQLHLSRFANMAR
# [12] = tested on: BJ; test: cytotoxicity toward Ras-transformed BJeLR fibroblasts, dose response, cell-based, alamar blue fluorescence, cherrypicked samples (AID 2631); type: functional; conditions: Homo sapiens;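 note: confirmatory dose-response assay in RAS-dependent BJ fibroblasts engineered with TERT, LT and ST, with cytotoxicity read by fluorescence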
# [13] = target: T5, Protein RecA (Mycobacterium tuberculosis, UniProt P9WHJ3); test: Fluorescence Cell-Free Homogeneous Dose Retest to Identify Inhibitors of RecA-Intein Splicing Activity. [Related pubchem assays (depositor defined):AID2097, AID2223, AID489010, AID492950]; type: functional
# T5 sequence (P9WHJ3 whole entry): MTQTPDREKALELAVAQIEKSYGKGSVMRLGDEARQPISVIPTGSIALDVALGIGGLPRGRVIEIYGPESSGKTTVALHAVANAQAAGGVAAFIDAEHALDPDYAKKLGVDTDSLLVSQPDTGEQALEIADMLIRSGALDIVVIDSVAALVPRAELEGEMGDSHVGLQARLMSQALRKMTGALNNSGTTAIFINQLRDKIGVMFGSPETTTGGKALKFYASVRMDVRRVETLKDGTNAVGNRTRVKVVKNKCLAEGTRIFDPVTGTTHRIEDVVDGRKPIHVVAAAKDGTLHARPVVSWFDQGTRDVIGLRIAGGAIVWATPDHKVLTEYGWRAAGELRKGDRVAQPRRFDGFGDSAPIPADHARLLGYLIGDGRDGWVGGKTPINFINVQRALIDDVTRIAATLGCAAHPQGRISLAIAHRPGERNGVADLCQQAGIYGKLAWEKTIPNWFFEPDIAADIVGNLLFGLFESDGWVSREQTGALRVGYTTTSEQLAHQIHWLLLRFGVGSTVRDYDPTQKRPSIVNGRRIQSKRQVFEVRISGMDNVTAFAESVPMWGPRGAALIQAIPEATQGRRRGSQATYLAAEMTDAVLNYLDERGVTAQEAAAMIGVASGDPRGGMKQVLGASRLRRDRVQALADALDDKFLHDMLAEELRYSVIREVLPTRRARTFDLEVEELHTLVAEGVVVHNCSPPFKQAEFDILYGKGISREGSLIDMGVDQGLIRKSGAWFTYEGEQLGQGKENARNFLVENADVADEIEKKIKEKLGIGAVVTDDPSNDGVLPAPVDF
# [14] = target: T6, Coagulation factor XII (Homo sapiens, UniProt P00748); test: Factor XIIa Dose Response Confirmation from Single Well HTS. [Related pubchem assays (depositor defined):AID701]; type: functional
# T6 sequence (P00748 whole entry): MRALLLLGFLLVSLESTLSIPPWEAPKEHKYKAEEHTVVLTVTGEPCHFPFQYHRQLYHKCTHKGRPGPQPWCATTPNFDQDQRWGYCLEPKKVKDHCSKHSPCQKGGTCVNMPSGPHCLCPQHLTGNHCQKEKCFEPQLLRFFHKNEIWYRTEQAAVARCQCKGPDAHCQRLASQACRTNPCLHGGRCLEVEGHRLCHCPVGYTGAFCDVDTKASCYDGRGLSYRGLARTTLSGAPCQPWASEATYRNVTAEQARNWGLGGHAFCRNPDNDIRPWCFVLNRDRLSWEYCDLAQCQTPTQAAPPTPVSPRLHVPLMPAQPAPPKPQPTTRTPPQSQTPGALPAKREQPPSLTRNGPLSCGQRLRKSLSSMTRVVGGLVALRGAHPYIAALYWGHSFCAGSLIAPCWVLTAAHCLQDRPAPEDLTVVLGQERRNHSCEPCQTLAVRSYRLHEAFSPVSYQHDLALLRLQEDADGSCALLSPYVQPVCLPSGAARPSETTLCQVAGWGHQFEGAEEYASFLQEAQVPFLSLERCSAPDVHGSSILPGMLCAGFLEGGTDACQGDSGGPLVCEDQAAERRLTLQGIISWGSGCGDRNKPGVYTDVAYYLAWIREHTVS
# [15] = target: Peroxisome proliferator-activated receptor gamma (Homo sapiens, UniProt P37231); test: PPARg partial agonists, dose response, cell-based, luminescence, assay provider (AID 504447); type: functional
# Chain of Peroxisome proliferator-activated receptor gamma (P37231 whole entry): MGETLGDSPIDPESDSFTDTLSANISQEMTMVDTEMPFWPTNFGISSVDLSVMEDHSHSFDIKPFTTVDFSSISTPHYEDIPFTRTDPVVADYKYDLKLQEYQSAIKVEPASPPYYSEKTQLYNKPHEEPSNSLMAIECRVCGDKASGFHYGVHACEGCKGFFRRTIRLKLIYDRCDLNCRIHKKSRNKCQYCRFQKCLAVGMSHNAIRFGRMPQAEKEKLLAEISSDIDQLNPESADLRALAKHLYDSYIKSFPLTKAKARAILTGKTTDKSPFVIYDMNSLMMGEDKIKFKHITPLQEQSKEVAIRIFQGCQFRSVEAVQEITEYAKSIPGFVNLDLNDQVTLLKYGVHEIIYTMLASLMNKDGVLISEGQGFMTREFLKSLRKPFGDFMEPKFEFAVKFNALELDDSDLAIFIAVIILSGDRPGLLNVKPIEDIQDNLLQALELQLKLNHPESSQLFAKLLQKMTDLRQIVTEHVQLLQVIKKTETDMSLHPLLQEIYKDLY
# 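Throughout, for CC50: cells exposed to compound for 72 hours before luminescence readout.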
structure (smiles),measurement,setting,value
CN1C(=O)C(=Cc2sc(=O)n(-c3ccccc3)c2N2CCCCC2)C(=O)N(C)C1=O,EC50,[1],4.56 µM (inconclusive)
same,EC50,[2],19.9 µM (inconclusive)
same,EC50,[3],> 3.32 µM (inactive)
same,EC50,[4],10.7 µM (not active)
Cc1ccc(N(C(=O)CCl)C(C(=O)NC2CCCCC2)c2cccnc2)cc1C (stereo not given),EC50,[5],0.171 µM (inconclusive)
same,EC50,[6],1.25 µM (active)
same,IC50,[7],34.7 µM (not active)
same,EC50,[8],3.95 µM (active)
same,EC50,[9],0.413 µM (active)
same,CC50,[10],0.1 µM (active)
same,AC50,[11],2.3 µM (active)
same,EC50,[12],0.147 µM (active)
same,EC50,[13],0.339 µM (active)
Cc1ccccc1CNCc1cccnc1,IC50,[14],> 50 µM (inactive)
COc1ccc2c(c1)c(=O)c(C(=O)c1ccc(C)cc1)cn2CC(=O)Nc1ccc(F)cc1,EC50,[15],14 µM (active)
